These results are taken from ChEMBL document CHEMBL1201862, “PubChem BioAssay data set” (2004).

Test systems include HOP-92; SF-539; IGROV-1; PC-3; DU-145; SF-268; MDA-MB-231; MDA-MB-435; MCF7; COLO 205; NCI-H23; SNB-75; HL-60; NCI-H460; UO-31; SK-MEL-2; UACC-62; CCRF-CEM; SN12C; MDA-N.
What all share (test): growth of human tumour cells (NCI), 48 h

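Cells were grown in 96-well plates and exposed to each compound for 48 hours at five concentrations; endpoints were interpolated linearly between bracketing concentrations, or set to the highest concentration if not reached. The concentration for 50% growth inhibition is given as GI50.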 The source made the active and inactive calls. No stated cut-off is given here; in the data, active = GI50 up to about 1.1 µM and inactive = higher. A value given as a limit tells only on which side of the number the result lay.

`COc1ccc(-c2cc(-c3ccc(Nc4ccnc5cc(Cl)ccc45)cc3)[nH]c(=O)c2C#N)cc1`: the GI50 with HOP-92, in the test on SF-539, in the test with IGROV-1, in the test with PC-3, with DU-145 and with SF-268 was > 100 µM (inactive) in each case. Further, the GI50 with MDA-MB-231, in the test on MDA-MB-435, in the test with MCF7, in the test on COLO 205, with NCI-H23 and with SNB-75 was > 100 µM (inactive) in each case. Further, the GI50 in the test on HL-60, with NCI-H460, in the test with UO-31, in the test with SK-MEL-2 and with UACC-62 was > 100 µM (inactive) each time.

As for `Nc1nc2c(ncn2Cc2ccccc2CO)c(=O)[nH]1`, the GI50 in the test with HOP-92, with SF-539, in the test on IGROV-1, in the test on PC-3, with DU-145 and in the test on SF-268 was > 100 µM (inactive) in each case. In addition, the GI50 in the test with MDA-MB-231, in the test with MDA-MB-435, in the test with CCRF-CEM, with MCF7, in the test on COLO 205 and with NCI-H23 was > 100 µM (inactive) throughout. Moreover, the GI50 with SN12C, in the test with SNB-75, with HL-60, in the test on NCI-H460, in the test on UO-31 and with SK-MEL-2 was > 100 µM (inactive) in each case. Also, the GI50 with UACC-62 is > 100 µM (inactive).

Turning to `CCOC(=O)C(=Cc1ccccc1Br)C(=O)OCC`, the GI50 is 3.4 µM (inactive) with HOP-92; 2.34 µM (inactive) in the test with SF-539; 1.96 µM (inactive) with IGROV-1; 2.93 µM (inactive) with PC-3; 0.508 µM (active) in the test on DU-145; 3.11 µM (inactive) in the test with SF-268. For the same compound, the GI50 with MDA-MB-231 was 6.41 µM (inactive); with MDA-MB-435, 1.69 µM (inactive); in the test on CCRF-CEM, 9.23 µM (inactive); in the test on MCF7, 1.55 µM (inactive); in the test on COLO 205 it was 2.8 µM (inactive); in the test with NCI-H23 it was 2.48 µM (inactive). Besides, the GI50 in the test with SN12C was 2.84 µM (inactive); in the test on SNB-75, 5.58 µM (inactive); in the test on HL-60 it was 0.585 µM (active); in the test on NCI-H460, 3.26 µM (inactive); in the test on UO-31, 2.25 µM (inactive); with SK-MEL-2, 2.14 µM (inactive). Besides, in the test on UACC-62, the GI50 was 1.72 µM (inactive).

As for `CCCCCCCCCC[C@@H](O)[C@H]1CC[C@H]([C@H]2CC[C@H]([C@H](O)CCCCCCCCCC[C@@H]3CC(CC(C)=O)C(=O)O3)O2)O1` (some centres not stated), the GI50 in the test with HOP-92 is > 50 µM (inactive); in the test with SF-539, 17.3 µM (inactive); in the test on IGROV-1, > 34.4 µM (inactive); in the test with PC-3 it was 21.7 µM (inactive); with DU-145, > 50 µM (inactive); with SF-268 it was > 50 µM (inactive). The GI50 in the test on MDA-MB-231 was > 50 µM (inactive); in the test on MDA-MB-435 it was > 39.1 µM (inactive); with CCRF-CEM, 9.23 µM (inactive); with MCF7 it was 13.8 µM (inactive); in the test with COLO 205, 13 µM (inactive); in the test on NCI-H23, 1.7 µM (inactive). For the same compound, the GI50 with SN12C was 33.4 µM (inactive); in the test on SNB-75, > 50 µM (inactive); with HL-60, 5.61 µM (inactive); in the test with NCI-H460 it was 0.254 µM (active); in the test on UO-31 it was 23.7 µM (inactive); in the test on SK-MEL-2, > 40.9 µM (inactive). Moreover, the GI50 with UACC-62 was 1.11 µM (active).

As for `O=C(NCCCCNCCCNC(=O)c1ccccc1)c1ccccc1`, the GI50 with HOP-92, in the test with SF-539, with IGROV-1, with PC-3, with DU-145 and in the test with SF-268 was > 100 µM (inactive) each time. The GI50 with MDA-MB-231, in the test with MDA-MB-435, in the test with CCRF-CEM, in the test with MCF7, in the test with COLO 205 and in the test on NCI-H23 was > 100 µM (inactive) throughout. The GI50 with SN12C, in the test on SNB-75, in the test on HL-60, with NCI-H460, with UO-31 and in the test with SK-MEL-2 was > 100 µM (inactive) each time. For the same compound, in the test on UACC-62, the GI50 is > 100 µM (inactive).

On to `O=S1(=O)C(c2ccccc2)=C(O)c2ccccc21`, for which the GI50 with HOP-92, in the test with SF-539, with IGROV-1, with PC-3, in the test on DU-145 and with SF-268 was > 100 µM (inactive) throughout. The GI50 is 7.91 µM (inactive) in the test with MDA-MB-231; > 100 µM (inactive) in the test with MDA-MB-435; > 100 µM (inactive) in the test with CCRF-CEM; > 100 µM (inactive) in the test on MCF7; > 100 µM (inactive) with COLO 205; > 100 µM (inactive) with NCI-H23. Further, the GI50 in the test on SNB-75, in the test with HL-60, with NCI-H460, in the test on UO-31, in the test on SK-MEL-2 and in the test on UACC-62 was > 100 µM (inactive) each time.

Turning to `N#CCc1nc(-c2cc3c(ccc4ccccc43)oc2=O)cs1`, the GI50 in the test with HOP-92 was 20.3 µM (inactive); in the test with SF-539, 21.5 µM (inactive); in the test with IGROV-1, 15.2 µM (inactive); in the test with PC-3, 65.5 µM (inactive); in the test on DU-145 it was 23.9 µM (inactive); in the test on SF-268, 31.6 µM (inactive). Moreover, the GI50 is 17.9 µM (inactive) with MDA-MB-231; > 100 µM (inactive) in the test with MDA-MB-435; > 100 µM (inactive) with CCRF-CEM; 38.3 µM (inactive) with MCF7; > 100 µM (inactive) in the test with COLO 205; 57.8 µM (inactive) with SN12C. Further, the GI50 with SNB-75 is 0.507 µM (active); in the test on HL-60, > 100 µM (inactive); in the test with NCI-H460 it was 43.1 µM (inactive); in the test with UO-31, 38.9 µM (inactive); with SK-MEL-2, 23.1 µM (inactive); in the test on UACC-62 it was 21.7 µM (inactive).

For the compound `CC(=O)CSc1c(-c2ccccc2)c(=O)n(-c2ccccc2)c(=S)n1-c1ccccc1`, the GI50 with HOP-92, in the test with MDA-N, in the test on IGROV-1, in the test with PC-3, with DU-145 and in the test with SF-268 was > 100 µM (inactive) in each case. Moreover, the GI50 in the test on MDA-MB-435, in the test on CCRF-CEM, with MCF7, in the test on COLO 205, in the test on NCI-H23 and with SN12C was > 100 µM (inactive) throughout. The GI50 with SNB-75 is 61.2 µM (inactive); in the test with HL-60, > 100 µM (inactive); in the test on NCI-H460 it was > 100 µM (inactive); in the test with UO-31, > 100 µM (inactive); with SK-MEL-2, > 100 µM (inactive); in the test on UACC-62, > 100 µM (inactive).
